Laboratory results: article PMC8951032, “Study of Biological Activities and ADMET-Related Properties of Novel Chlorinated N-arylcinnamamides” (International Journal of Molecular Sciences, 2022)
≈ marks a conversion by molar mass, not a printed value. Read-outs that look alike come from different tables or passages of the source.

Key:
[1] = system: methicillin-resistant S. aureus (MRSA) 63718; assay: In vitro antistaphylococcal activity, microtitration broth MIC; assay type: cell-based; conditions: Staphylococcus aureus
[2] = system: Mycobacterium marinum CAMP 5644; assay: In vitro antimycobacterial activity, broth dilution MIC; assay type: cell-based; conditions: CAMP5644, 504 h
[3] = system: S. aureus, MRSA, E. faecalis, VRE, M. smegmatis, M. marinum; assay: In vitro antimicrobial screening, all tested strains; assay type: cell-based; conditions: antibacterial/antimycobacterial screening
[4] = system: human monocytic leukemia cell line THP-1; assay: In vitro cell viability, CCK-8; assay type: cell-based; conditions: Homo sapiens, THP-1
Method: (§1) The effect of the compounds on viability of eukaryotic cells was evaluated on human leukemia cell line THP-1, human synovial cell line SW982, and isolated primary porcine monocytes-delivered macrophages (MDM). The general cytotoxic effect was studied on THP-1 cells in the serum-free medium (only THP-1 as the only cells used in this study are able to survive in serum-free medium). Most of the compounds had no cytotoxic effect on THP-1 cells. […] This could be caused by the direct interaction of such compounds with serum proteins or by the effect of mitogens, cytokines, and hormones present in the serum. Obviously, the full medium is closer to physiological conditions in living organisms, so it can be assumed that these compounds could be non-toxic there.
(§2) Human monocytic leukemia cell line THP-1 and human synovial cell line SW982 were purchased from the European Collection of Cell Cultures (ECACC, Salisbury, UK) and were used for determination of the influence of test compounds on cell viability, as described previously. These cell lines represent typical suspension and adherent cells, respectively. They were cultivated with test substances in the presence or absence of fetal bovine serum (FBS) in the cultivation medium, and the relative cell viability (the ratio between cells treated with compounds and cells treated only with DMSO) was determined by CCK-8 kit (Sigma) after 24 h.

[5] = system: human synovial cell line SW982; assay: In vitro cell viability, CCK-8; assay type: cell-based; conditions: 10% fetal bovine serum
Method: as §1, §2

[6] = system: methicillin-resistant S. aureus SA 630; assay: In vitro antistaphylococcal activity, microtitration broth MIC; assay type: cell-based; conditions: Staphylococcus aureus
[7] = system: vancomycin-resistant E. faecalis (VRE) 368; assay: In vitro antienterococcal activity, microtitration broth MIC; assay type: cell-based, Enterococcus faecalis
[8] = system: Mycobacterium smegmatis ATCC 700084; assay: In vitro antimycobacterial activity, broth dilution MIC; assay type: cell-based; conditions: Mycolicibacterium smegmatis
[9] = system: vancomycin-resistant E. faecalis (VRE) 342B; assay: In vitro antienterococcal activity, microtitration broth MIC; assay type: cell-based, Enterococcus faecalis; conditions: 24 h
[10] = system: Enterococcus faecalis ATCC 29212; assay: as above; assay type: cell-based
[11] = system: methicillin-resistant S. aureus SA 3202; assay: In vitro antistaphylococcal activity, microtitration broth MIC; assay type: cell-based; conditions: Staphylococcus aureus
[12] = Lipophilicity determination by RP-HPLC (log k, log D); assay type: physicochemical; conditions: for log k: MeOH 72%/H2O 28%; for log D6.5: MeOH 72%/acetate buffered saline pH 6.5; for log D7.4: MeOH 72%/acetate buffered saline pH 7.4
Method: In addition to the mentioned ADME profile, it is responsible for interactions with biological targets. Lipophilicity is recognized as one of the most important parameters influencing ADME and bioactivity and is also part, e.g., of Lipinski’s Rule of Five (Ro5). This thermodynamic parameter describing the molecule’s affinity for an aqueous or relatively lipophilic environment can be characterized by the logarithm of the partition coefficient (log P). In this study, lipophilicity was measured by reversed-phase high-performance liquid chromatography (RP-HPLC) under isocratic conditions with methanol as the organic modifier in the aqueous mobile phase and the logarithm of the capacity factor k was calculated, which is used as the lipophilicity index converted to the log P scale. In addition to the log k values, the logarithm of the distribution coefficient DpH at pH 6.5 and 7.4 was determined to clarify the behavior of the compounds under physiological conditions and possible ionization. Instead of water, a buffer of suitable pH was used as part of the mobile phase. In addition to the above-mentioned experimental methods, commercially available ChemBioDraw Ultra 13.0 and ACD/Percepta ver. 2012 programs were used to calculate the lipophilicity values of all prepared compounds.
A HPLC separation module Waters Alliance 2695 XE equipped with a Waters Dual Absorbance Detector 2486 (Waters Corp., Milford, MA, USA) was used. A chromatographic column Symmetry® C18 5 μm, 4.6 × 250 mm, Part No. W21751W016 (Waters Corp., Milford, MA, USA) was used. The HPLC separation process was monitored by Empower® 3 Chromatography Manager Software (Waters Corp.). Isocratic elution by a mixture of MeOH p.a. (72%) and H2O-HPLC Mili-Q grade (28%) as a mobile phase was used for the determination of capacity factor k. Isocratic elution by a mixture of MeOH p.a. (72%) and acetate buffered saline (pH 7.4 and pH 6.5) (28%) as a mobile phase was used for the determination of distribution coefficient expressed as D7.4 and D6.5. The total flow of the column was 1.0 mL/min, injection 20 μL, column temperature 40 °C, and sample temperature 10 °C. The detection wavelength of 210 nm was chosen. A KI methanolic solution was used for the determination of the dead times (tD). Retention times (tR) were measured in minutes. The capacity factors k were calculated according to the formula k = (tR − tD)/tD, where tR is the retention time of the solute, and tD is the dead time obtained using an unretained analyte. The distribution coefficients DpH were calculated according to the formula DpH = (tR − tD)/tD. Each experiment was repeated three times.

[13] = system: vancomycin-resistant E. faecalis (VRE) 725B; assay: In vitro antienterococcal activity, microtitration broth MIC; assay type: cell-based, Enterococcus faecalis; conditions: 24 h
[14] = 24 h, MRSA 63718, read-out: log(1/MIC [M]) MRSA1 (converted)
[15] = MRSA 63718, 24 h, read-out: MIC MRSA1
[16] = M. marinum CAMP 5644, 21 days, read-out: MIC MM
[17] = M. marinum CAMP 5644, read-out: log(1/MIC [M]) MM (converted)
[18] = 10% fetal bovine serum, 24 h, read-out: IC50 THP-1 10% FSB
[19] = 10% fetal bovine serum, read-out: log(1/IC50 [M]) THP-1 10% FSB (converted)
[20] = serum-free medium, 24 h, read-out: IC50 THP-1 SFM
[21] = serum-free medium, read-out: log(1/IC50 [M]) THP-1 SFM (converted)
[22] = 24 h, read-out: IC50 SW982 10% FSB
[23] = read-out: log(1/IC50 [M]) SW982 10% FSB (converted)
[24] = 24 h, MRSA SA 630, read-out: log(1/MIC [M]) MRSA2 (converted)
[25] = MRSA SA 630, 24 h, read-out: MIC MRSA2
[26] = 24 h, VRE 368, read-out: log(1/MIC [M]) VRE2 (converted)
[27] = VRE 368, 24 h, read-out: MIC VRE2
[28] = ATCC700084, 72 h, M. smegmatis ATCC 700084, three days, read-out: MIC MS
[29] = ATCC700084, M. smegmatis ATCC 700084, read-out: log(1/MIC [M]) MS (converted)
[30] = read-out: log(1/MIC [M]) VRE1 (converted)
[31] = ATCC29212, 24 h, E. faecalis reference strain, read-out: log(1/MIC [M]) EF (converted)
[32] = ATCC29212, E. faecalis reference strain, 24 h, read-out: MIC EF
[33] = 24 h, MRSA SA 3202, read-out: log(1/MIC [M]) MRSA3 (converted)
[34] = MRSA SA 3202, 24 h, read-out: MIC MRSA3
[35] = read-out: log(1/MIC [M]) VRE3 (converted)

MIC [1, 14] [M]	MIC [1, 15] [M]	MIC [2, 16] [M]	MIC [2, 17] [M]	IC50 [4, 18] [M]	IC50 [4, 19] [M]	IC50 [4, 20] [M]	IC50 [4, 21] [M]	IC50 [5, 22] [M]	IC50 [5, 23] [M]	MIC [6, 24] [M]	MIC [6, 25] [M]	MIC [7, 26] [M]	MIC [7, 27] [M]	MIC [8, 28] [M]	MIC [8, 29] [M]	MIC ([9]; read-out: MIC VRE1) [M]	MIC [9, 30] [M]	MIC [10, 31] [M]	MIC [10, 32] [M]	Structure (SMILES)	other results
3.16e-07 (≈ 0.125 µg/mL)	3.18e-07 (≈ 0.125 µg/mL)	> 0.00065	> 0.000646	> 1e-05	> 1e-05	1e-06 ± 1.1e-06	1e-06	> 1e-05	> 1e-05	3.16e-07 (≈ 0.125 µg/mL)	3.18e-07 (≈ 0.125 µg/mL)	0.000324 (≈ 127 µg/mL)	0.000325 (≈ 128 µg/mL)	2.54e-06 (≈ 1 µg/mL)	2.51e-06 (≈ 0.989 µg/mL)	0.00065 (≈ 256 µg/mL)	0.000646 (≈ 254 µg/mL)	0.000324 (≈ 127 µg/mL)	0.000325 (≈ 128 µg/mL)	O=C(/C=C/c1ccc(Cl)cc1)Nc1cc(C(F)(F)F)cc(C(F)(F)F)c1 [1q, (2E)-N-[3,5-bis(Trifluoromethyl)phenyl]-3-(4-chlorophenyl)prop-2-enamide]	antimicrobial activity (in words) [3]: showed activity; MIC [11, 33]: 6.31e-07 M (≈ 0.248 µg/mL); MIC [11, 34]: 6.35e-07 M (≈ 0.25 µg/mL); log k [12]: 1.3064; log D6.5 [12]: 1.2925; log D7.4 [12]: 1.2980; MIC ([13]; read-out: MIC VRE3): 0.000325 M (≈ 128 µg/mL); MIC [13, 35]: 0.000324 M (≈ 127 µg/mL)
> 0.000871	> 0.000876	0.000876 (≈ 256 µg/mL)	0.000871 (≈ 254 µg/mL)	> 1e-05	> 1e-05	7.5e-06 ± 1e-06	7.59e-06	> 1e-05	> 1e-05	> 0.000871	> 0.000876	> 0.000871	> 0.000876	1.36e-05 (≈ 3.97 µg/mL)	1.38e-05 (≈ 4.03 µg/mL)	> 0.000876	> 0.000871	0.000871 (≈ 254 µg/mL)	0.000876 (≈ 256 µg/mL)	O=C(/C=C/c1ccc(Cl)c(Cl)c1)Nc1ccccc1 [2a, (2E)-3-(3,4-Dichlorophenyl)-N-phenylprop-2-enamide]	MIC [11, 33]: > 0.000871 M; MIC [11, 34]: > 0.000876 M; log k [12]: 0.6199; log D6.5 [12]: 0.6669; log D7.4 [12]: 0.6354; MIC ([13]; read-out: MIC VRE3): > 0.000876 M; MIC [13, 35]: > 0.000871 M
6.92e-07 (≈ 0.249 µg/mL)	6.94e-07 (≈ 0.25 µg/mL)	5.55e-06 (≈ 2 µg/mL)	5.5e-06 (≈ 1.98 µg/mL)	> 1e-05	> 1e-05	1.9e-06 ± 1e-06	1.91e-06	> 1e-05	> 1e-05	1.38e-06 (≈ 0.497 µg/mL)	1.39e-06 (≈ 0.501 µg/mL)	2.24e-05 (≈ 8.06 µg/mL)	2.22e-05 (≈ 8 µg/mL)	5.55e-06 (≈ 2 µg/mL)	5.5e-06 (≈ 1.98 µg/mL)	2.22e-05 (≈ 8 µg/mL)	2.24e-05 (≈ 8.06 µg/mL)	2.24e-05 (≈ 8.06 µg/mL)	2.22e-05 (≈ 8 µg/mL)	O=C(/C=C/c1ccc(Cl)c(Cl)c1)Nc1cccc(C(F)(F)F)c1 [2i, (2E)-3-(3,4-Dichlorophenyl)-N-[3-(trifluoromethyl)phenyl]prop-2-enamide]	antimicrobial activity (in words) [3]: active; MIC [11, 33]: 1.38e-06 M (≈ 0.497 µg/mL); MIC [11, 34]: 1.39e-06 M (≈ 0.501 µg/mL); log k [12]: 0.9873; log D6.5 [12]: 0.9915; log D7.4 [12]: 0.9505; MIC ([13]; read-out: MIC VRE3): 4.44e-05 M (≈ 16 µg/mL); MIC [13, 35]: 4.47e-05 M (≈ 16.1 µg/mL)
